# Results from patent US20140187426A1, “CROP ENHANCEMENT” (SYNGENTA PARTICIPATIONS AG, priority 2011, published 2014).
# Key:
# Format in all cases: in vivo
# summer barley (Pasadena) = assay: Glasshouse trial, lodging of summer barley after leaf spray; conditions: for % lodging 30 DAA Summary barley: leaf spray at growth stage 30, 30 days after application
# Excerpt: (§1) A glasshouse trial was setup to assess growth effects of cis-jasmone on summer barley (Pasadena) and winter rye (Reknit).
# (§2) Each treatment was applied as a spray to the leaves of the plant at plant growth stage 30 (start of stem elongation). Assessments of lodging were made 30 days after application; the results are expressed as percentage lodging in Table 2.
# creeping bentgrass = assay: Turf colour assessment, golf course green trial; conditions: for Plant Colour 14DAA (2) / Plant Colour 14 DAA (3) / Plant Colour 7AA (2): scale 1 (poor) to 10 (good), 3 apps - 4 week interval; for Plant Colour 14DAA (2): 14 days after application 2; for Plant Colour 14 DAA (3): 14 days after application 3; for Plant Colour 7AA (2): after application 2
# Excerpt: A trial was setup to assess crop (turf) enhancement effects of cis-jasmone on a creeping bentgrass golf course green. Each treatment was applied as a spray to the turfgrass. Assessments of turf colour and quality were made at several intervals after application; the results are expressed on a scale of 1 (poor) to 10 (good) in Table 5.
# [1] = tested on: summer oil seed rape variety Jumbo; assay: Glasshouse trial, leaf chlorophyll content (Dualex), variety Jumbo
# Excerpt: (§3) A glasshouse trial was setup to assess growth effects of cis-jasmone on summer oil seed rape varieties Jumbo and Senator. Each treatment was applied as a spray to the leaves of the plant at plant growth stage 13 (3 leaves). Three replicates of 2 plants were sowed in pots in the greenhouse. Assessments of chlorophyll content of the leaves were made using the Dualex technique 25 days after application; the results are expressed as Dualex units of Chlorophyll in Table 8.
# winter rye (Reknit) = assay: Glasshouse trial, lodging of winter rye after leaf spray; conditions: for % lodging 30 DAA Winter rye: leaf spray at growth stage 30, 30 days after application
# Excerpt: as §1, §2
# Poa annua [2] = assay: Turf quality assessment, golf course fairway trial
# Excerpt: (§4) A trial was setup to assess crop (turf) enhancement effects of cis-jasmone on Poa annua in a golf course […]. Each treatment was applied as a spray to the turfgrass. Assessments of turf colour and quality were made at several intervals after application; the results are expressed on a scale of 1 (poor) to 10 (good).
# Poa annua [3] = assay: Turf colour assessment, golf course fairway trial
# Excerpt: as §4
# [4] = tested on: summer oil seed rape variety Senator; assay: Glasshouse trial, leaf chlorophyll content (Dualex), variety Senator
# Excerpt: as §3
# hybrid bermudagrass = assay: Turf growth (clipping weights), golf course fairway trial; conditions: for Clipping wt (g) 32 DAA (1): 3 apps - 4 week interval, 32 days after application 1
# Excerpt: A trial was setup to assess crop enhancement effects of cis-jasmone on a hybrid bermudagrass golf course […]. Each treatment was applied as a spray to the turfgrass. Assessments of turf growth (clipping weights in grams) were made at several intervals after application.
# [5] = during the entire study, versus untreated check
# [6] = scale 1 (poor) to 10 (good), 50 g ai/ha, 4 applications on a 4 week schedule, 9-Jul
# [7] = scale 1 (poor) to 10 (good), 50 g ai/ha, 4 applications on a 4 week schedule, 16-Jul
# [8] = scale 1 (poor) to 10 (good), 50 g ai/ha, 4 applications on a 4 week schedule, 17-Jun
smiles,measurement,setting,value
"CC/C=C\CC1=C(C)CCC1=O [Cis-jasmone (CJN), cis-jasmone]",% lodging 30 DAA Summary barley,summer barley (Pasadena); 150 g AI/ha,70.0%
same,% lodging 30 DAA Summary barley,summer barley (Pasadena); 300 g AI/ha,60.0%
same,initial growth (in words),summer barley (Pasadena); summer barley,faster initial growth
same,effect on lodging (in words),"summer barley (Pasadena); summer barley, versus untreated check",significantly increases lodging
same,effect on turf colour (in words),creeping bentgrass; [5],significantly increased turf colour
same,Plant Colour 14DAA (2),creeping bentgrass; 50 g ai/ha,5.40 e
same,Plant Colour 14 DAA (3),creeping bentgrass; 50 g ai/ha,6.00 c
same,Plant Colour 7AA (2),creeping bentgrass; 50 g ai/ha,5.6
same,Plant Colour 14DAA (2),creeping bentgrass; 100 g ai/ha,6.00 c
same,Plant Colour 14 DAA (3),creeping bentgrass; 100 g ai/ha,6.00 c
same,Plant Colour 7AA (2),creeping bentgrass; 100 g ai/ha,5.7
same,Plant Colour 14DAA (2),creeping bentgrass; 150 g ai/ha,6.00 c
same,Plant Colour 14 DAA (3),creeping bentgrass; 150 g ai/ha,6.00 c
same,Plant Colour 7AA (2),creeping bentgrass; 150 g ai/ha,6.08
same,effect on chlorophyll content (in words),[1],increased chlorophyll content
same,% lodging 30 DAA Winter rye,winter rye (Reknit); 150 g AI/ha,30.0%
same,% lodging 30 DAA Winter rye,winter rye (Reknit); 300 g AI/ha,23.3%
same,effect on lodging (in words),"winter rye (Reknit); winter rye, versus untreated check",significantly increases lodging
same,effect on turf quality (in words),Poa annua [2]; [5],significantly increased turf quality
same,Turf quality 3-Jul,"Poa annua [2]; scale 1 (poor) to 10 (good), 50 g ai/ha, 4 applications on a 4 week schedule, 3-Jul",8.46 a
same,Turf quality 9-Jul,Poa annua [2]; [6],8.42 a
same,Turf quality 10-Jun,"Poa annua [2]; scale 1 (poor) to 10 (good), 50 g ai/ha, 4 applications on a 4 week schedule, 10-Jun",8.2 a
same,Turf quality 16-Jul,Poa annua [2]; [7],8.1 a
same,Turf quality 17-Jun,Poa annua [2]; [8],8.8 a
same,Turf quality 23-Jul,"Poa annua [2]; scale 1 (poor) to 10 (good), 50 g ai/ha, 4 applications on a 4 week schedule, 23-Jul",8.18 a
same,Turf quality 24-Jun,"Poa annua [2]; scale 1 (poor) to 10 (good), 50 g ai/ha, 4 applications on a 4 week schedule, 24-Jun",8.74 a
same,Turf quality 31-Jul,"Poa annua [2]; scale 1 (poor) to 10 (good), 50 g ai/ha, 4 applications on a 4 week schedule, 31-Jul",7.96 a
same,effect on turf colour (in words),Poa annua [3]; [5],significantly increased turf colour
same,Turf colour 4-June,"Poa annua [3]; scale 1 (poor) to 10 (good), 50 g ai/ha, 4 applications on a 4 week schedule, 4-June",7.80 b
same,Turf colour 9-Jul,Poa annua [3]; [6],8.2 a
same,Turf colour 10-June,"Poa annua [3]; scale 1 (poor) to 10 (good), 50 g ai/ha, 4 applications on a 4 week schedule, 10-June",8.16 a
same,Turf colour 14-May,"Poa annua [3]; scale 1 (poor) to 10 (good), 50 g ai/ha, 4 applications on a 4 week schedule, 14-May",5.8 b
same,Turf colour 16-Jul,Poa annua [3]; [7],7.96 a
same,Turf colour 17-Jun,Poa annua [3]; [8],7.80 a
same,Turf colour 21-May,"Poa annua [3]; scale 1 (poor) to 10 (good), 50 g ai/ha, 4 applications on a 4 week schedule, 21-May",8.08 b
same,Turf colour 28-May,"Poa annua [3]; scale 1 (poor) to 10 (good), 50 g ai/ha, 4 applications on a 4 week schedule, 28-May",6.00 b
same,effect on chlorophyll content (in words),[4],not
same,Clipping wt (g) 32 DAA (1),hybrid bermudagrass; 50 g ai/ha,37 ab g
same,Clipping wt (g) 32 DAA (1),hybrid bermudagrass; 100 g ai/ha,45 a g
same,Clipping wt (g) 32 DAA (1),hybrid bermudagrass; 150 g ai/ha,25 c g
same,effect on clipping weights (in words),"hybrid bermudagrass; early in the trial, versus untreated check",significantly increased clipping weights
